Measured values: PMC3914206

Experiments:
Type in all cases: binding
Settings in all cases: Compound Concentration 10 µM
panel of 442 kinases [1] = target: T1, panel of 442 kinases (Homo sapiens, UniProt Q14289)
T1 construct: purchased KINOMEscan
Text: (§1) We assessed the selectivity of members of this scaffold using the KINOMEscan methodology across a near comprehensive panel of 442 kinases [[18,27]].

panel of 442 kinases [2] = target: T2, panel of 442 kinases (Homo sapiens, UniProt O14730)
T2 construct: purchased KINOMEscan
T2 sequence (O14730 1-519): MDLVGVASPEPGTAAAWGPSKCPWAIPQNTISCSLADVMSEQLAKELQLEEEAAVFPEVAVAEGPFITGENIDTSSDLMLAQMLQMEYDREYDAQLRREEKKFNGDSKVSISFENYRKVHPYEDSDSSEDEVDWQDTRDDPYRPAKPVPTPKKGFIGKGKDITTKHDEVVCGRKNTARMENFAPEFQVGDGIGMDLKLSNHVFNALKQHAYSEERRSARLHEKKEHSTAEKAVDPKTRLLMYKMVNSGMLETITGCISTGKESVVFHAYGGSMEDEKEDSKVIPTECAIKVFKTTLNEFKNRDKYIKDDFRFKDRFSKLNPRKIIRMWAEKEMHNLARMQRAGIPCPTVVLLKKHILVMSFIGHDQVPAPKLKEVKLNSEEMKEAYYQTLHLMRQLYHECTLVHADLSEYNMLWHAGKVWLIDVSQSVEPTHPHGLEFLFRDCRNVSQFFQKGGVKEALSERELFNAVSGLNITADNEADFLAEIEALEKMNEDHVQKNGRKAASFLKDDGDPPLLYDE
Text: as §1

panel of 442 kinases [3] = target: T3, panel of 442 kinases (Homo sapiens, UniProt Q13043)
T3 construct: purchased KINOMEscan
T3 sequence (Q13043 1-487): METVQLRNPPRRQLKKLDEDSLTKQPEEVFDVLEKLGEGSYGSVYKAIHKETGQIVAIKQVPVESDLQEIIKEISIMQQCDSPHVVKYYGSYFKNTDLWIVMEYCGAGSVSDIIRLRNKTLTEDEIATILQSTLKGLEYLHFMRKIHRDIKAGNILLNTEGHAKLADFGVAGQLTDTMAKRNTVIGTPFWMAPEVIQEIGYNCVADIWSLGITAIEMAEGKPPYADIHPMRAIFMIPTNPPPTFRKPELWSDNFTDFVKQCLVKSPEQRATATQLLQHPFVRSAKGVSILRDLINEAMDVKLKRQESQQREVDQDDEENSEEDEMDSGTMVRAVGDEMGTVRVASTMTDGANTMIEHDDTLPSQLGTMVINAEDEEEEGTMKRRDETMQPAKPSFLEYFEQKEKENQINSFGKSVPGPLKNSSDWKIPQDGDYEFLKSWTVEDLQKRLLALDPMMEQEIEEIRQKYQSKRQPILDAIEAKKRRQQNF
Text: as §1

T1 sequence (Q14289 whole entry): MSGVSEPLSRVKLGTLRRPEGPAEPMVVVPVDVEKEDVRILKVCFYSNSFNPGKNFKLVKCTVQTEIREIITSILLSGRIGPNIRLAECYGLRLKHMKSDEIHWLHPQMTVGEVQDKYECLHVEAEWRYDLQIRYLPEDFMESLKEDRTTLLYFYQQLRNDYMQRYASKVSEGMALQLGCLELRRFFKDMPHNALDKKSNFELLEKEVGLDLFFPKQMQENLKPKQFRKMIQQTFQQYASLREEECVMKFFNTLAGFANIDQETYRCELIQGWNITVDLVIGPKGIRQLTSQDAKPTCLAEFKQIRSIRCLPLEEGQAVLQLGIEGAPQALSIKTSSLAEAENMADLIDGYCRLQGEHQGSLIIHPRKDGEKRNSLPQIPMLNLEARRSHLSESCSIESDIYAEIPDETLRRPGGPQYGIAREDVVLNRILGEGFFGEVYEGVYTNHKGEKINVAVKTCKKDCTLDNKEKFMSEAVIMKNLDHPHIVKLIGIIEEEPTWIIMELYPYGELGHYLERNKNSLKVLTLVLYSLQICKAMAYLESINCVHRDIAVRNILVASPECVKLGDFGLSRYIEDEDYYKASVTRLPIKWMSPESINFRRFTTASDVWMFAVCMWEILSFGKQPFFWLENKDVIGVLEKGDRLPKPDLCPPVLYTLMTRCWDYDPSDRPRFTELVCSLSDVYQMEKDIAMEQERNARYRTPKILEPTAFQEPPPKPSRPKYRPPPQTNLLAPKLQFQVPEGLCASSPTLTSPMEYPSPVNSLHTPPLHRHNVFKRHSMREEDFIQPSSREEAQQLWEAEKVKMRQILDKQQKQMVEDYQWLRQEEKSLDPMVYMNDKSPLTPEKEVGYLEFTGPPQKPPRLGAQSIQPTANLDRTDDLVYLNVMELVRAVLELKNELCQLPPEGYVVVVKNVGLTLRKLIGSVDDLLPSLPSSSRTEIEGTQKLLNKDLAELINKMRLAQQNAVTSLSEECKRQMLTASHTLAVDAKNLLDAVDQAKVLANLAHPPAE

Compound | KINOMEscan: PYK2 (panel of 442 kinases [1]) | KINOMEscan: RIOK3 (panel of 442 kinases [2]) | KINOMEscan: MST1 (panel of 442 kinases [3])
COc1cc(C(=O)N2CCC(N3CCN(C)CC3)CC2)ccc1Nc1ncc2c(n1)N(C)c1ccccc1C(=O)N2C [15 (LRRK2-IN-1)] | 78 | 85 | 100
COc1cc(C(=O)N2CCC(N3CCN(C)CC3)CC2)ccc1Nc1ncc2c(n1)N1CCc3cccc(c31)C(=O)N2C [Compound 24] | 77 | 74 | 95
COc1cc(C(=O)N2CCC(N3CCN(C)CC3)CC2)ccc1Nc1ncc2c(n1)N(C1CCCC1)c1ccccc1C(=O)N2C [Compound 25, 11-cyclopentyl-2-((2-methoxy-4-(4-(4-methylpiperazin-1-yl)piperidine-1-carbonyl)phenyl)amino)-5-methyl-5H-benzo[e]pyrimido[5,4-b][1,4]diazepin-6(11H)-one] | 17 | 84 | 100
CCOc1cc(C(=O)N2CCC(N3CCN(C)CC3)CC2)ccc1Nc1ncc2c(n1)N(C1CCCC1)c1ccccc1C(=O)N2C [Compound 26] | 43 | 89 | 100
